The text below walks through data of publication PMC9894685, “Abscisic acid agonists suitable for optimizing plant water use” (Frontiers in Plant Science, 2023).

Assay [1] deals with RCAR11-ABI2. The assay can be described thus: Yeast ABA signal pathway LUC reporter, RCAR11-ABI2. It is filed as cell-based, Arabidopsis thaliana. As to the method:
(§1) The yeast cultivation and the life luciferase assay were performed as described ([Ruschhaupt et al., 2019]). Briefly, the reporter yeast expressing an ABA-dependent luciferase gene (LUC) was transformed with different combinations of ABA signaling components as indicated. Golden gate cloning ([Binder et al., 2014]) was used to construct pYEAST_LII_5‐6_CEN_URA vector with TDH3 promoter and TDH1 terminator (tTDH1), pYEAST_LII_1‐2_CEN_LEU vector with GK1 promoter and tTDH1, and pYEAST_LII_3‐4_CEN_TRP with the GAL1 promoter (pGAL1) and tTDH1 to express RCARs, PP2Cs, and OST1 (SnRK2.6), respectively ([Ruschhaupt et al., 2019]). The expression of ABF2 in yeast relies on a modified pGREG503 vector, in which pGAL1 ([Jansen et al., 2005]) was replaced by the ADH1 promoter.
Colonies of freshly transformed cells were inoculated in 0.5 mL supplemented synthetic dextrose (SD) medium and incubated at 30°C in a gyratory shaker (Thermoshake-THO500, Gerhardt, Königswinter, Germany) at 200 rpm for 16-18 h. After overnight growth, the cells were harvested and washed in SD medium followed by inoculation in SD medium containing 2% galactose for induction of SnRK2 kinases under the control of the GAL1 promoter and supplementation with ligands at indicated concentrations, to an OD600 of 0.2 in flat-bottom 96-well plates (CytoOne, Starlab, Hamburg, Germany). Yeast cultures were incubated at 30°C and 200 rpm for 16-18 h before determination of LUC activity and cell density. Light emission of yeasts was detected in a HIDEX plate luminometer (HIDEX, Turku, Finland) after injection of 100 µL freshly prepared luciferin substrate (1 mM D-luciferin, Promega) provided in 100 mM citric acid, pH 3 ([Leskinen et al., 2003]) for 5 s and was corrected for background. The LUC activity was normalized to the cell density (OD600) measured in 96-well flat plates (Sarstedt, Nümbrecht, Germany). LUC activity is given as the ratio of light emission to OD600 in counts per second.

Assay [2] deals with RCAR1/PYL9-ABI2. Kind of assay: Yeast ABA signal pathway LUC reporter, RCAR1-ABI2. The format is cell-based, Arabidopsis thaliana. As to the method: as §1, with “The expression of ABF2 in yeast relies on a modified pGREG503 vector, in which pGAL1 ([Jansen et al., 2005]) was replaced by the ADH1 promoter.” left out
Colonies of freshly transformed cells were inoculated in 0.5 mL supplemented synthetic dextrose (SD) medium and incubated at 30°C in a gyratory shaker (Thermoshake-THO500, Gerhardt, Königswinter, Germany) at 200 rpm for 16-18 h. […] Light emission of yeasts was detected in a HIDEX plate luminometer (HIDEX, Turku, Finland) after injection of 100 µL freshly prepared luciferin substrate (1 mM D-luciferin, Promega) provided in 100 mM citric acid, pH 3 ([Leskinen et al., 2003]) for 5 s and was corrected for background. The LUC activity was normalized to the cell density (OD600) measured in 96-well flat plates (Sarstedt, Nümbrecht, Germany). […]

Assay [3] concerns T1, RCAR11-ABI2.
T1 construct: 6xHis (N); made in house; host or cells: Escherichia coli BL21
Kind of assay: In vitro phosphatase assay, ABI2 with RCAR11. It is filed as biochemical, Arabidopsis thaliana. To be noted: 100 nM ABI2, 200 nM RCAR11. Here is the method:
(§2) Expression, purification, and analysis of RCAR and PP2C proteins were performed essentially as described ([Ruschhaupt et al., 2019]). Briefly, the ABA receptors RCAR1, RACR8, and RCAR11 were expressed with an aminoterminal histidine tag using the pSEVA431_LII_6xHIS::RCAR1/RCAR8/RCAR11. ABA coreceptors were expressed as histidine-tagged fusions with the maltose-binding protein using the pSEVA431_LII_6xHIS::MBP::ABI2/HAB1. All constructs were transformed and expressed in Escherichia coli strain BL21 and purified to homogeneity according to supplier’s instruction (GE Healthcare, Chicago, USA). The receptor assay was performed with 100 nM PP2C and a two-fold molar excess of RCAR. Values are means ± SD of three replicates. […] The maximum inhibition was set to 100% in the figures. The phosphatase activity was measured using 4-methylumbelliferyl-phosphate as a substrate ([Meinhard and Grill, 2001]). The increase in fluorescence was recorded over 25 min with excitation and emission wavelengths at 360 and 460 nm, respectively, using a Synergy 2 plate reader (Bio-Tec, Winooski, USA).

Assay [4] concerns the target RCAR8-ABI2. The assay can be described thus: In vitro phosphatase assay, ABI2 with RCAR8. It is filed as biochemical, Arabidopsis thaliana. Particulars: 100 nM ABI2, 200 nM RCAR8. As to the method:
as §2

Assay [5] addresses T2, RCAR1-HAB1.
T2 construct: 6xHis (N); made in house; host or cells: Escherichia coli BL21
Kind of assay: In vitro phosphatase assay, HAB1 with RCAR1. It is filed as biochemical, Arabidopsis thaliana. Particulars: 100 nM HAB1, 200 nM RCAR1. As to the method: as §2

Assay [6] concerns Arabidopsis plants. Kind of assay: Progressive drought experiment: growth, water consumption, WUE. The format is in vivo, Arabidopsis thaliana. As to the method: The progressive drought experiment was performed as described ([Yang et al., 2016]). Briefly, 18-day-old Arabidopsis plantlets grown under well-watered and short-day conditions (8 h light with 150 µmol m^-2 s^-1 PAR, 22°C, 50% relative humidity, and 16 h dark with 17°C, 60% relative humidity) were transferred to 0.2 L pots loaded with water-saturated soil (33.4 ± 0.4 g dry soil with 148 ± 2 g water). At the onset of the progressive drought (day 0), water was withheld, and a sealed soil surface prevented evaporation. A slowly increasing water deficit was achieved by transpirational water loss from plants. The progressive drought experiment lasted for eight weeks until mock-treated plants had consumed all the plant-usable water. […] For measuring growth and water consumption, leaf rosettes were regularly photographed, and the pots were weighed. The projected leaf area of Arabidopsis rosettes was analyzed by using Photoshop Elements software (Adobe, San Jose, USA). The consumed water was calculated as the difference in pot weight between day 0 and the designated days. The retained water was expressed as the difference between the pot weight at the end of the drought (day 57) and the weight of the loaded dry soil. Above-ground material was harvested at day 57, and the biomass was determined after drying the material for three days at 60°C to achieve constant weight. WUE was calculated as the ratio of above-ground dry biomass to consumed water. The data for the mock- and ABA-treated plants in the progressive drought experiment were already published ([Yang et al., 2019]).

Molecules are shown by their SMILES.

As for `CCC(=C/C(=O)O)/C=C/C(O)(C(C)C)C1(C#N)CC1` (centres unmarked) [CCP2], the “ABA-agonistic activity in yeast LUC reporter” value in assay [1] (30 µM, not esterase-treated) was “revealed an ABA-agonistic activity”. Also, the “Activation of the ABA response compared to ABA” value in assay [1] (dose-dependent, 0.1-30 µM) is “comparable activity to ABA”. The “Higher exogenous concentration required for reporter expression comparable to 1 µM ABA” value in assay [2] is recorded as more than 30 x. Besides, the “Inhibition of ABI2 compared to ABA” value in assay [3] is on record as “comparable to ABA”. The “IC50 relative to ABA (fold higher)” value in assay [4] was approximately 30 fold. In assay [5], the “IC50 with HAB1 compared to the ABI2 results” value is recorded as “lower IC50 value”. The WUE increase in assay [6] (30 µM solute concentration) is reported as approximately 50%. In addition, in assay [6] (30 µM, three administrations), the “Growth of leaf rosettes compared to mock” value was “growth reduction”. In assay [6] (end of drought experiment), the “Plant-usable soil water transpired” value is listed as approximately 70% and the “WUE improvement compared to controls” value is recorded as “up to 50%”. The “Restriction of water consumption” value in assay [6] (single administration, for two weeks) was “approximately 30%”.
